ChEMBL document CHEMBL1250438, “Identification and evaluation of apoptotic compounds from Garcinia paucinervis” (Bioorg Med Chem, 2010)
Calls of active or inactive are those of the source. No cut-off for these calls is given here.

Tests used:
Format in all cases: functional, cell-based
HeLa [1] = assay: Cytotoxicity against human HeLa cells after 72 hrs by MTT assay
HeLa C3 [2] = assay: Induction of apoptosis in human HeLaC3 cells assessed as reduction of yellow fluorescent protein/cyan fluorescent protein emission ratio below 3 at 50 uM after 72 hrs by FRET assay
HeLa C3 [3] = assay: Induction of apoptosis in human HeLaC3 cells assessed as reduction of yellow fluorescent protein/cyan fluorescent protein emission ratio below 3 at 10 uM after 72 hrs by FRET assay
HeLa C3 [4] = assay: Induction of apoptosis in human HeLaC3 cells assessed as reduction of yellow fluorescent protein/cyan fluorescent protein emission ratio below 3 at 25 uM after 72 hrs by FRET assay
HeLa C3 [5] = assay: Induction of apoptosis in human HeLaC3 cells assessed as reduction of yellow fluorescent protein/cyan fluorescent protein emission ratio below 3 at 100 uM after 72 hrs by FRET assay
HeLa C3 [6] = assay: Induction of apoptosis in human HeLaC3 cells assessed as morphological changes at 500 nM after 24 to 72 hrs
HeLa C3 [7] = assay: Induction of apoptosis in human HeLaC3 cells assessed as morphological changes at 25 uM after 24 to 72 hrs
HeLa [8] = assay: Induction of apoptosis in human HeLa cells assessed as cleavage of PARP at 25 uM after 36 hrs by Western blotting
HeLa C3 [9] = assay: Induction of apoptosis in human HeLaC3 cells at 50 to 100 uM after 72 hrs
HeLa [10] = assay: Induction of apoptosis in human HeLa cells assessed as cleavage of PARP at 25 uM after 12 hrs by Western blotting
HeLa C3 [11] = assay: Induction of apoptosis in human HeLaC3 cells assessed as reduction of yellow fluorescent protein/cyan fluorescent protein emission ratio below 3 at 25 uM after 48 hrs by FRET assay
HeLa C3 [12] = assay: Induction of apoptosis in human HeLaC3 cells at < 100 uM after 72 hrs
HeLa C3 [13] = assay: Induction of apoptosis in human HeLaC3 cells assessed as reduction of yellow fluorescent protein/cyan fluorescent protein emission ratio below 3 at 25 uM after 24 hrs by FRET assay

Structure (SMILES)	IC50 (HeLa [1])	Activity (HeLa C3 [2])	Activity (HeLa C3 [3])	Activity (HeLa C3 [4])	Activity (HeLa C3 [5])	Activity (HeLa C3 [6])	Activity (HeLa C3 [7])	Activity (HeLa [8])	Activity (HeLa C3 [9])	Activity (HeLa [10])	Activity (HeLa C3 [11])	Activity (HeLa C3 [12])	Activity (HeLa C3 [13])
CC1(C)C=Cc2c(c3ccoc3c3oc4c(O)cccc4c23)O1 [PAUCINERVIN C]	52.5 µM	inactive	inactive	inactive	Active	–	–	–	–	–	–	–	–
CC(=O)O[C@H]1C(=O)[C@@]2(C)[C@H]([C@H](OC(=O)c3ccccc3)[C@]3(O)C[C@H](OC(=O)[C@H](O)[C@@H](NC(=O)c4ccccc4)c4ccccc4)C(C)=C1C3(C)C)[C@]1(OC(C)=O)CO[C@@H]1C[C@@H]2O	–	–	–	–	–	Active	–	–	–	–	–	–	–
CC(C)=CCC/C(C)=C/C[C@H]1C[C@]2(CC=C(C)C)C(=O)[C@@](CC=C(C)C)(C(=O)C(C(=O)c3ccc(O)c(O)c3)=C2O)[C@]1(C)CCC=C(C)C	–	Active	inactive	Active	Active	–	Active	–	–	–	–	–	–
CC1(C)C=Cc2c(cc3oc4c(O)c(O)ccc4c(=O)c3c2O)O1	–	inactive	Active	Active	Active	–	Active	Active	Active	Active	Active	–	–
C=C(C)[C@H]1C/C=C(\C)CC/C=C(\C)CC/C=C(\C)CC1	–	inactive	inactive	inactive	Active	–	–	–	–	–	–	–	–
CC(C)=CCC/C(C)=C/CC/C(C)=C/CCC1(C)CCc2c(C)ccc(O)c2O1 (configuration not stated)	–	Active	inactive	inactive	inactive	–	–	–	–	–	–	–	–
CC1=CCCC(C)(C)C1CCC(C)CCCC(C)CCO (configuration not stated)	–	inactive	inactive	inactive	inactive	–	–	–	–	–	–	–	–
CC1=C(C)C(=O)C(CCC(C)(O)CCCC(C)CCCC(C)CCCC(C)C)=C(C)C1=O (configuration not stated)	–	inactive	inactive	inactive	inactive	–	–	–	–	–	–	Active	–
C=C(C)[C@@H]1C[C@]23C[C@H](CC=C(C)C)C(C)(C)[C@](CC=C(C)C)(C(=O)C(C(=O)c4ccc(O)c(O)c4)=C2O[C@H]1C=C(C)C)C3=O	–	Active	inactive	Active	Active	–	Active	–	–	–	–	–	Active
CC(C)=CCc1cc2c(=O)c3c(O)c(CC=C(C)C)c(O)c(CC=C(C)C)c3oc2c(O)c1O	–	Active	inactive	inactive	Active	–	–	–	–	–	–	–	–
CC(C)=CC[C@H]1C[C@@]23C[C@@H](CC=C(C)C)C(C)(C)[C@@](CC=C(C)C)(C(=O)C(C(=O)c4ccc(O)c(O)c4)=C2OC1(C)C)C3=O	–	inactive	inactive	Active	inactive	–	Active	–	Active	–	–	–	Active
C=CC(C)(C)c1c(OC)c(CC=C(C)C)c(O)c2c(=O)c3ccc(O)c(O)c3oc12	–	Active	inactive	inactive	Active	–	–	–	–	–	–	–	–
COC(=O)c1c(O)cc(O)cc1Oc1c(O)c(OC)cc(CC=C(C)C)c1OC [PAUCINERVIN B]	9.5 µM	Active	inactive	Active	Active	–	Active	Active	–	Active	Active	–	–
CC(C)=CCc1c(O)cc2oc3ccc(O)cc3c(=O)c2c1O	–	inactive	inactive	inactive	inactive	–	–	–	–	–	–	Active	–
CC(C)=CCC/C(C)=C/CC/C(C)=C/CCC1(C)CCc2c(C)cc(O)c(O)c2O1 (configuration not stated) [PAUCINERVIN D]	29.5 µM	Active	inactive	inactive	Active	–	–	–	–	–	–	–	–
COc1c(O)c(CC=C(C)C)cc2c1Oc1cc(O)c(CC=C(C)C)c(O)c1C(=O)O2 [PAUCINERVIN A]	95.6 µM	inactive	inactive	inactive	Active	–	–	–	–	–	–	–	–
CC(C)=CCc1c(O)cc(O)c2c(=O)c3cc4c(c(O)c3oc12)OC(C)(C)C=C4	–	Active	inactive	Active	Active	–	Active	–	–	–	–	–	–
